From patent US9637498B2, “Substituted thieno[2,3-C]pyridazine-6-carboxamide analogs as positive allosteric modulators of the muscarinic acetylcholine receptor M4” (Vanderbilt University, priority 2013, dated 2017)

Target: T1, mAChR M4 (Homo sapiens, UniProt P08173)
T1 construct: expressed in transfected cells; host or cells: CHO-K1 cells, also stably transfected with the chimeric G-protein Gqi5
T1 sequence (P08173 1-479): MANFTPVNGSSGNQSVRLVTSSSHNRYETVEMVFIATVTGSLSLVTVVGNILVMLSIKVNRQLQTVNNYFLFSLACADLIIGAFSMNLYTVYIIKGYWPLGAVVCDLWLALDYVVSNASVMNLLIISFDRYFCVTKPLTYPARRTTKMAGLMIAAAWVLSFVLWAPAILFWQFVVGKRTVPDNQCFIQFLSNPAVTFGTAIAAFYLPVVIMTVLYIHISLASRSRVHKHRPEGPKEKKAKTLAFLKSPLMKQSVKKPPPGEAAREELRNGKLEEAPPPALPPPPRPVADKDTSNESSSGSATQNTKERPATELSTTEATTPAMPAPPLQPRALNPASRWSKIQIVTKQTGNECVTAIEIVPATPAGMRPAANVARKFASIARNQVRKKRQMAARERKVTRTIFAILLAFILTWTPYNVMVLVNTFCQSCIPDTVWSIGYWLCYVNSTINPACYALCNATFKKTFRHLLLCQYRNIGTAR
Test: mAChR M4 cell-based functional assay (calcium mobilization, potentiation of EC20 acetylcholine response)
Conditions: for EC50: CHO-K1 cells expressing mAChR M4 (Gqi5), calcium flux, increase in EC20 acetylcholine response, >10,000 estimated where the curve has no plateau; for Emax at 30 µM: % ACh maximum at 30 μM
Description: Chinese hamster ovary (CHO-K1) cells stably expressing rat (r)M1 were purchased from the American Type Culture Collection and cultured according to their indicated protocol. CHO cells stably expressing human (h)M2, hM3, and hM5 were described previously (Levey et al., 1991); hM1 and hM4 cDNAs were purchased from Missouri S&T cDNA Resource; rM4 cDNA was provided by T. I. Bonner (National Institutes of Health, Bethesda, Md.). rM2 and rM3 were cloned from a rat brain cDNA library and sequence verified. hM1, rM2, rM3, hM4, and rM4 cDNAs were used to stably transfect CHO-K1 cells purchased from the American Type Culture Collection using Lipofectamine 2000. To make stable rM2, hM2, hM4, and rM4 cell lines for use in calcium mobilization assays, these cells also were stably transfected with a chimeric G-protein (Gqi5) (provided by B. R. Conklin, University of California, San Francisco) using Lipofectamine 2000. rM1, hM1, rM3, hM3, rM5, and hM5 cells were grown in Ham's F-12 medium containing 10% heat-inactivated fetal bovine serum (FBS), 20 mM HEPES, and 50 µg/mL G418 sulfate. rM2-Gqi5, hM2-Gqi5, and hM4-Gqi5 cells were grown in the same medium also containing 500 µg/mL Hygromycin B. Stable rM4-Gqi5 cells were grown in DMEM containing 10% heat-inactivated FBS, 20 mM HEPES, 400 μg/mL G418 sulfate, and 500 μg/mL Hygromycin B.
For high throughput measurement of agonist-evoked increases in intracellular calcium, CHO-K1 cells stably expressing muscarinic receptors were plated in growth medium lacking G418 and hygromycin at 15,000 cells/20 μL/well in Greiner 384-well black-walled, tissue culture (TC)-treated, clear-bottom plates (VWR). Cells were incubated overnight at 37° C. and 5% CO2. The next day, cells were washed using an ELX 405 (BioTek) with four washes (80 μL) of assay buffer then aspirated to 20 μL. Next, 20 μL of 16 μM Fluo-4/acetoxymethyl ester (Invitrogen, Carlsbad, Calif.) prepared as a 2.3 mM stock in DMSO and mixed in a 1:1 ratio with 10% (w/v) Pluronic F-127 and diluted in assay buffer was added to the wells and the cell plates were incubated for 50 min at 37° C. and 5% CO2. Dye was removed by washing with the ELX 405 (four 80 μL washes of assay buffer) then aspirated to 20 μL. Compound master plates were formatted in an 11 point CRC format (1:3 dilutions) in 100% DMSO with a starting concentration of 10 mM using the BRAVO liquid handler (Agilent). Test compound CRCs were then transferred to daughter plates (240 nL) using the Echo acoustic plate reformatter (Labcyte, Sunnyvale, Calif.) and then diluted into assay buffer (40 μL) to a 2× stock using a Thermo Fisher Combi (Thermo Fisher Scientific, Waltham, Mass.).
Calcium flux was measured using the Functional Drug Screening System (FDSS) 6000 (Hamamatsu Corporation, Tokyo, Japan) as an increase in the fluorescent static ratio. Compounds were applied to cells (20 μL, 2×) using the automated system of the FDSS 6000 at 4 s into the 300 s protocol and the data were collected at 1 Hz. At 144 s into the 300 s protocol, 10 μL of an EC20 concentration of the muscarinic receptor agonist acetylcholine was added (5×), followed by the addition of 12 μL an EC80 concentration of acetylcholine at the 230 s time point (5×). Agonist activity was analyzed as a concentration-dependent increase in calcium mobilization upon compound addition. Positive allosteric modulator activity was analyzed as a concentration-dependent increase in the EC20 acetylcholine response. Antagonist activity was analyzed as a concentration-dependent decrease in the EC80 acetylcholine response. Concentration-response curves were generated using a four-parameter logistical equation in XLFit™ curve fitting software (IDBS, Bridgewater, N.J.) for Excel (Microsoft, Redmond, Wash.) or Prism (GraphPad Software, Inc., San Diego, Calif.). […]

| SMILES | EC50 [µM] | Emax at 30 µM [%] |
| --- | --- | --- |
| Cc1nnc2sc(C(=O)NCc3ccc(S(=O)(=O)C(F)(F)F)cc3)c(Br)c2c1C [B1] | > 10 |  |
| COc1ccc(CNC(=O)c2sc3nnc(C)c(C)c3c2Br)cc1 [B2] | 3.7 | 36 |
| Cc1nnc2sc(C(=O)NC3CN(c4ccc(C(F)(F)F)nc4)C3)cc2c1C [B3] | 1 | 53 |
| COc1ccc(CNC(=O)c2cc3c(C)c(C)nnc3s2)cc1F [B4] | 1.4 | 68 |
| Cc1nnc2sc(C(=O)NC3CCN(c4ccccc4)C3)cc2c1C (centres unmarked) [B5] | > 10 |  |
| Cc1nnc2sc(C(=O)NC3COC3)cc2c1C [B6] | 3.9 | 76 |
| Cc1nnc2sc(C(=O)NC3CC3)cc2c1C [B7] | 4.3 | 72 |
| Cc1nnc2sc(C(=O)N3CC(c4ccccc4)C3)c(C3CC3)c2c1C [B8] | > 10 |  |
| COc1ccc(CNC(=O)c2sc3nnc(C)c(C)c3c2C)cc1F [B9] | 2 | 59 |
| Cc1nnc2sc(C(=O)NC3CC3)c(C3CC3)c2c1C [B11] | > 10 | 35 |
| COc1ccc(C2CC2NC(=O)c2sc3nnc(C)c(C)c3c2C2CC2)cc1 (centres unmarked) [B12] | > 10 |  |
| Cc1nnc2sc(C(=O)NC3COC3)c(C3CC3)c2c1C [B13] | ~9 | 46 |
| Cc1nnc2sc(C(=O)NC3CC3)c(C)c2c1C [B14] | > 10 | 68 |
| Cc1nnc2sc(C(=O)NC3CCC3)c(C3CC3)c2c1C [B15] | 5.2 | 33 |
| Cc1nnc2sc(C(=O)N3CCC(c4ccccc4)C3)c(C3CC3)c2c1C (centres unmarked) [B16] | > 10 |  |
| Cc1nnc2sc(C(=O)NC3CC(F)(F)C3)c(C3CC3)c2c1C [B17] | > 10 | 35 |
| COc1ccc(CNC(=O)c2sc3nnc(C)c(C)c3c2C2CC2)cc1F [B18] | 4.4 | 38 |
| Cc1nnc2sc(C(=O)N3CCC(c4ccccc4)C3)c(C)c2c1C (centres unmarked) [B19] | > 10 |  |
| Cc1nnc2sc(C(=O)NC3CN(c4cccnc4)C3)c(C)c2c1C [B20] | 0.91 | 69 |
| COc1ccc(C2CC2NC(=O)c2sc3nnc(C)c(C)c3c2C)cc1 (centres unmarked) [B21] | 2.1 | 51 |
| Cc1nnc2sc(C(=O)NC3CN(c4ccc(C(F)(F)F)nc4)C3)c(C3CC3)c2c1C [B22] | 3.1 | 24 |
| Cc1nnc2sc(C(=O)NC3COC3)c(C)c2c1C [B23] | > 10 | 65 |
